Patent publication US20090062253A1, “HETEROCYCLODIAZEPINE CANNABINOID RECEPTOR MODULATORS FOR TREATMENT OF DISEASE” (KALYPSYS, INC., priority 2007, published 2009)

Assays:
[1] = target: T1, human cannabinoid receptor type 1 (Homo sapiens, UniProt P21554); assay: Human CB1 Radioligand Binding Assay (basis of selectivity CB2 vs. CB1)
T1 construct: purchased Perkin Elmer RBHCB1M; host or cells: HEK 293 EBNA cells
Protocol: (§1) This receptor binding filtration assay measures the receptor-ligand interactions of compounds by measuring ability to compete with a radiolabeled control ligand. Reactions were performed in 96 deep-well plate (Costar 3961) with a final volume of 600 ul. Compounds were added to each well either in single point (10 uM final) or dose-response. Compounds were delivered in DMSO or further diluted in incubation buffer to a final assay DMSO concentration of 1%. Incubation buffer (50 mM Tris-HCl pH 7.4, 2.5 mM EGTA, 5 mM MgCl2, 5.0 mg/ml fatty acid free BSA) was added to each well. Following buffer addition, [^3H] CP-55,940 was added. Tritiated CP-55,940 (Perkin Elmer) was used at the Kd determined from prior saturation binding experiments conducted on each lot of membranes. Membrane preparations from stably transfected CHO CB2 cells were added and the reaction was incubated for 90 minutes at 30° C. Unifilter GF/C filtration plates (Perkin Elmer) were pre-wet with 0.05% polyethylenimine. Samples were transferred to Unifilter plates and separation of unbound radioligand was achieved using a vacuum manifold (Millipore). Following thorough washing with 5 ml/well ice-cold wash buffer (50 mM Tris-HCl pH 7.4, 2.5 mM EGTA, 5 mM MgCl2, 0.5 mg/ml fatty acid free BSA), filterplates were dried completely. Betaplate Scint Scintillation cocktail (25 ul, Perkin Elmer) was applied and plates were read using Microbeta Trilux (Wallac). Data analysis was performed in Spotfire. Activity of the positive control (100 nM CP-55,940) was set as 100% efficacy.
The CB1 binding assay was performed as described above except that HEK 293 EBNA cells expressing human cannabinoid receptor type 1 (Perkin Elmer cat #RBHCB1M) were used according the manufacturer's instructions. The incubation buffer was composed of 50 mM Tris-HCl pH 7.4, 2.5 mM EDTA, 5 mM MgCl2, 5.0 mg/ml fatty acid free BSA and the wash buffer was composed of 50 mM Tris-HCl pH 7.4, 2.5 mM EDTA, 5 mM MgCl2, 0.5 mg/ml fatty acid free BSA. Activity of the positive control (100 nM CP-55,940) was set as 100% efficacy.

Human CB2 = target: T2, Human CB2 (Homo sapiens, UniProt P34972); assay: Human CB2 Radioligand Binding Assay; conditions: membranes from stably transfected CHO CB2 cells; competition with [3H] CP-55,940; read-out: CB2 Ligand Binding Asssay
T2 construct: expressed in transfected cells; membrane preparation
Protocol: as §1
Stable recombinant Human CB2-CHO cell membranes were prepared as follows: Chinese Hamster Ovarian (CHO) cells stably expressing human cannabinoid receptor type 2 were grown to ˜90% confluence in 15×100 mm culture dishes under puromycin selection (5 ug/ml) Cells were harvested from culture flasks using a cell scraper, were washed once with cold phosphate-buffered saline (calcium and magnesium free) and pelleted by centrifugation at 400 g for 5 min at 4° C. Cell pellet was washed once with cold phosphate-buffered saline and centrifuged again at 400×g for 5 min at 4° C. The pellet was suspended in ice-cold lysis buffer (10 mM Tris-HCl, 0.1 mM EDTA, containing […], pH 7.5) and homogenized in a chilled 7 ml glass dounce homogenizer using 50 strokes. The homogenate was centrifuged at 400 g for 15 min at 4° C. The cloudy supernatant was collected and centrifuged at 41000 g for 30 min at 4° C. The resulting pellet was washed with ice-cold sucrose-free lysis buffer and centrifuged again at 41000 g for 30 min at 4° C. The membrane pellet was suspended in sucrose-free storage buffer (10 mm Tris-HCl, 0.1 mM EDTA, pH 7.5) to a concentration of 2-3 mg protein/ml. Aliquots were flash frozen in liquid nitrogen and stored at −80° C. Concentration was determined using Dc protein assay kit (Bio-Rad).

T2 sequence (P34972 whole entry): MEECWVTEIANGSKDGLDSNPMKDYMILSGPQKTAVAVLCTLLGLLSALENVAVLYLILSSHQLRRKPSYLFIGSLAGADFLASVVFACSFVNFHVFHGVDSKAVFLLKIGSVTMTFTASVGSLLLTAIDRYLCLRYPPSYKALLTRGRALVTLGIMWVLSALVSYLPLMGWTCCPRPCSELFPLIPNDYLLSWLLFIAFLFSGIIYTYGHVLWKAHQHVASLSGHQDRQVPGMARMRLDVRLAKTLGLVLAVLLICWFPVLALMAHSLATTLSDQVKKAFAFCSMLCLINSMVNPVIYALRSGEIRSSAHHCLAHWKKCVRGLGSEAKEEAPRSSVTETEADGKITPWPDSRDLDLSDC
T1 sequence (P21554 whole entry): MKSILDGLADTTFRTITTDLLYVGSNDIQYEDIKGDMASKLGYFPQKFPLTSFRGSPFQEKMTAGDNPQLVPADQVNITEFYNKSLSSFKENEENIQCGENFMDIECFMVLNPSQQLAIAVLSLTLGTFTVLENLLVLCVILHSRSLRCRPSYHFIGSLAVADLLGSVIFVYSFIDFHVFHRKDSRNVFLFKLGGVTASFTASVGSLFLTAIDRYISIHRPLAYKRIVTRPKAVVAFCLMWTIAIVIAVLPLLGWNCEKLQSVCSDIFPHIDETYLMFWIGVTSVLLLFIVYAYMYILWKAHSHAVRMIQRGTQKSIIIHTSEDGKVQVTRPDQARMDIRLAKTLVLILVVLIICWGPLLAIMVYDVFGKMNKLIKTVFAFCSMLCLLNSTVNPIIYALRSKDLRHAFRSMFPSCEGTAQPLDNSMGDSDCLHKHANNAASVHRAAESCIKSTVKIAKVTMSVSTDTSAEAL

SMILES | Selectivity, CB2 vs. CB1 [1] | IC50 (radioligand displacement) (Human CB2) [nM]
CC(C)(C)c1ccc(C2c3cccn3CCC2C(=O)Nc2ccc(F)c(F)c2)cc1 (mixture of isomers) [Example 95, 8-(4-tert-Butylphenyl)-N-(3,4-difluorophenyl)-5,6,7,8-tetrahydroindolizine-7-carboxamide] | + (+ indicates > 10-fold) | < 1000
O=C(Nc1ccc(F)cc1F)C1CCn2cccc2C1c1ccccc1 (mixture of isomers) [Example 100, N-(2,4-Difluorophenyl)-8-phenyl-5,6,7,8-tetrahydroindolizine-7-carboxamide] | − (− indicates < 10-fold) | > 1000
O=C(Nc1ccc(F)c(F)c1)C1CCn2cccc2C1c1ccccc1 (mixture of isomers) [Example 101, N-(3,4-Difluorophenyl)-8-phenyl-5,6,7,8-tetrahydroindolizine-7-carboxamide] | − (− indicates < 10-fold) | > 1000
O=C(Nc1ccc(Cl)cc1)C1CCn2cccc2C1c1ccccc1 (mixture of isomers) [Example 102, N-(4-Chlorophenyl)-8-phenyl-5,6,7,8-tetrahydroindolizine-7-carboxamide] | − (− indicates < 10-fold) | > 1000
O=C(Nc1ccc(C(F)(F)F)cc1)C1CCn2cccc2C1c1ccccc1 (mixture of isomers) [Example 103, 8-Phenyl-N-(4-(trifluoromethyl)phenyl)-5,6,7,8-tetrahydroindolizine-7-carboxamide] | − (− indicates < 10-fold) | > 1000
O=C(Nc1ccc(OC(F)(F)F)cc1)C1CCn2cccc2C1c1ccccc1 (mixture of isomers) [Example 104, 8-Phenyl-N-(4-(trifluoromethoxy)phenyl)-5,6,7,8-tetrahydroindolizine-7-carboxamide] | − (− indicates < 10-fold) | > 1000
CC(C)(C)c1ccc(C2c3cccn3CCCC2NC(=O)Nc2ccc(Cl)cc2)cc1 (mixture of isomers) [Example 115, 1-(9-(4-tert-Butylphenyl)-6,7,8,9-tetrahydro-5H-pyrrolo[1,2-a]azepin-8-yl)-3-(4-chlorophenyl)urea] | + (+ indicates > 10-fold) | > 1000
CC(C)(C)c1ccc(C2c3cccn3CCCC2NC(=O)Nc2ccc(F)cc2F)cc1 (mixture of isomers) [Example 116, 1-(9-(4-tert-Butylphenyl)-6,7,8,9-tetrahydro-5H-pyrrolo[1,2-a]azepin-8-yl)-3-(2,4-difluorophenyl)urea] | − (− indicates < 10-fold) | < 1000
CC(C)(C)c1ccc(C2c3cccn3CCCC2NC(=O)Nc2ccc(F)c(F)c2)cc1 (mixture of isomers) [Example 117, 1-(9-(4-tert-Butylphenyl)-6,7,8,9-tetrahydro-5H-pyrrolo[1,2-a]azepin-8-yl)-3-(3,4-difluorophenyl)urea] | − (− indicates < 10-fold) | < 1000
CC(C)(C)c1ccc(C2c3cccn3CCCC2NC(=O)Nc2ccc(C(F)(F)F)cc2)cc1 (mixture of isomers) [Example 122, 1-(9-(4-tert-Butylphenyl)-6,7,8,9-tetrahydro-5H-pyrrolo[1,2-a]azepin-8-yl)-3-(4-(trifluoromethyl)phenyl)urea] | + (+ indicates > 10-fold) | < 1000
CC(C)(C)c1ccc(CC2[C@@H]3CCCN3CCCN2C(=O)Nc2ccc(F)cc2F)cc1 (mixture of isomers) [Example 124, (9aS)-1-(4-tert-Butylbenzyl)-N-(2,4-difluorophenyl)hexahydro-1H-pyrrolo[1,2-a][1,4]diazepine-2(3H)-carboxamide] | − (− indicates < 10-fold) | > 1000
CC(C)(C)c1ccc(CC2[C@@H]3CCCN3CCCN2C(=O)Nc2ccc(Cl)cc2)cc1 (mixture of isomers) [Example 125, (9aS)-1-(4-tert-Butylbenzyl)-N-(4-chlorophenyl)hexahydro-1H-pyrrolo[1,2-a][1,4]diazepine-2(3H)-carboxamide] | − (− indicates < 10-fold) | > 1000
CC(C)(C)c1ccc(CC2[C@@H]3CCCN3CCCN2C(=O)Nc2ccccc2)cc1 (mixture of isomers) [Example 126, (9aS)-1-(4-tert-Butylbenzyl)-N-phenylhexahydro-1H-pyrrolo[1,2-a][1,4]diazepine-2(3H)-carboxamide] | − (− indicates < 10-fold) | > 1000
CC(C)(C)c1ccc(CC2[C@@H]3CCCN3CCCN2C(=O)Nc2ccc(F)cc2)cc1 (mixture of isomers) [Example 127, (9aS)-1-(4-tert-Butylbenzyl)-N-(4-fluorophenyl)hexahydro-1H-pyrrolo[1,2-a][1,4]diazepine-2(3H)-carboxamide] | − (− indicates < 10-fold) | > 1000
O=C(Nc1ccc(F)cc1F)[C@H]1CCCn2cccc2[C@@H]1c1ccccc1 (relative stereo) [Example 105, (8,9-trans)-N-(2,4-Difluorophenyl)-9-phenyl-6,7,8,9-tetrahydro-5H-pyrrolo[1,2-a]azepine-8-carboxamide] | − (− indicates < 10-fold) | > 1000
O=C(Nc1ccc(F)c(F)c1)[C@H]1CCCn2cccc2[C@@H]1c1ccccc1 (relative stereo) [Example 107, (8,9-trans)-N-(3,4-Difluorophenyl)-9-phenyl-6,7,8,9-tetrahydro-5H-pyrrolo[1,2-a]azepine-8-carboxamide] | − (− indicates < 10-fold) | > 1000
CC(C)(C)c1ccc(C2c3cccn3CCN2C(=O)Nc2ccc(Cl)cc2Cl)cc1 (stereo not drawn) [Example 3, 1-(4-tert-Butylphenyl)-N-(2,4-dichlorophenyl)-3,4-dihydropyrrolo[1,2-a]pyrazine-2(1H)-carboxamide] | – | < 1000
CC(C)(C)c1ccc(C2NCCCn3cccc32)cc1 (stereo not drawn) [Example 6, 1-(4-tert-Butylphenyl)-2,3,4,5-tetrahydro-1H-pyrrolo[1,2-a][1,4]diazepine] | – | > 1000
Cc1ccc(C2c3cccn3CCCN2C(=O)Nc2ccc(Cl)cc2Cl)cc1 (stereo not drawn) [Example 9, N-(2,4-Dichlorophenyl)-1-p-tolyl-4,5-dihydro-1H-pyrrolo[1,2-a][1,4]diazepine-2(3H)-carboxamide] | – | < 1000
O=C(Nc1ccc(F)cc1F)N1CCCn2cccc2C1c1ccc(OC(F)(F)F)cc1 (stereo not drawn) [Example 15, N-(2,4-Difluorophenyl)-1-(4-(trifluoromethoxy)phenyl)-4,5-dihydro-1H-pyrrolo[1,2-a][1,4]diazepine-2(3H)-carboxamide] | – | < 1000
O=C(Nc1ccc(Cl)cc1Cl)N1CCCn2cccc2C1c1ccc(OC(F)(F)F)cc1 (stereo not drawn) [Example 16] | – | > 1000
O=C(Nc1ccc(C(F)(F)F)cc1)C1=C(c2ccccc2)c2cccn2CC1 [Example 68, 8-Phenyl-N-(4-(trifluoromethyl)phenyl)-5,6-dihydroindolizine-7-carboxamide] | – | > 1000
O=C(Nc1ccc(F)cc1F)C1=C(c2ccccc2)c2cccn2CC1 [Example 70, N-(2,4-Difluorophenyl)-8-phenyl-5,6-dihydroindolizine-7-carboxamide] | – | > 1000
